The values below come from patent publication US7521071B2, “Formulation of oral compositions comprising arsenic trioxide and methods of use thereof” (Versitech Limited, priority 2002, dated 2009).

Marks after values point to notes of the source that are not given here. Where only a bound is given, the exact number is not on record here.

Data set [1] is described as follows: Oral arsenic bioavailability: plasma and whole blood arsenic AUC after IV (day 1) and oral (day 2) As2O3. The class given is in vivo, human patients. The method, then: As diets containing seafood contain arsenic, each patient was instructed to refrain from seafood, preferably for at least one week before arsenic administration. On day-1 at 10 A.M., 10 mg of a standard, commercially available IV As2O3 formulation (from Ophthalmic Laboratories, Sydney, Australia) diluted in 100 ml of Sodium Chloride 0.9% solution was infused IV over 60 minutes. At 10 A.M. on day-2 (i.e., 24 hours after the start of the IV infusion), each patient swallowed a 10 mg dose (10 ml) of our oral AS2O3 solution and none were instructed to fast before or during their treatment.
Venous blood samples were drawn (11 ml) prior to As2O3 administration on day-1 and subsequently at the following times after the beginning of the IV infusion: 1, 2, 3, 4, 6, 8, 24, 25, 26, 27, 28, 30, 32 and 48 hours. […] The plasma from the lithium-heparin tube was freshly separated and both the plasma and whole blood samples were stored at 4° C. and subsequently analyzed in batches.
Plasma and whole blood arsenic concentration were assayed after the samples were deproteinized with 3% (w/v) trichloroacetic acid and then mixed with matrix modifiers. […] Concentrations are therefore expressed as nmol/L of arsenic above basal values. […]

For data set [2] the following is noted: As2O3 powder; cited from earlier work.
Data set [3] concerns acute promyelocytic leukemia (APL). Particulars: cited from earlier work.
A short description of data set [4]: Safety monitoring in Example 1 (ECG, complications). Type of data set: in vivo, human patients. Here is the method: Demographic features as well as details pertaining to each patient's disease state (including laboratory findings) were recorded throughout the period of study. Their subsequent clinical progress and pertinent laboratory results were also logged. The University of Hong Kong Faculty of Medicine Ethics Committee approved the entire protocol.
The demographic features, basal arsenic concentrations, disease status, and treatment outcomes of each patient are shown in Table 2.

Data set [5] relates to PML/RARA. The data set is described as follows: Molecular monitoring of PML/RARA (PCR) in Example 2. The class given is in vivo, human patients. Here is the method: Twelve consecutive unselected patients with relapsed APL were treated with oral-As2O3 (see Table 4). The relapse was confirmed morphologically (>30% blasts+abnormal promyelocytes in the marrow) and cytogenetically (presence of t(15;17), with none of the cases showing additional karyotyic aberrations) or molecularly (presence of PML/RARA). The treatment was given with informed consent, and the protocol was approved by the University of Hong Kong Faculty of Medicine Ethics Committee.
However, PML/RARA became negative in 11 cases 3-6 months post-remission, and remained negative until the latest bone marrow examination. PCR in patient no. 1 became positive shortly before R2.

The nature of data set [6]: Arsenic in plasma and cellular fraction of blood at 48 hours. Type of data set: in vivo, human patients. Here is the method: Venous blood samples were drawn (11 ml) prior to As2O3 administration on day-1 and subsequently at the following times after the beginning of the IV infusion: 1, 2, 3, 4, 6, 8, 24, 25, 26, 27, 28, 30, 32 and 48 hours. Five ml from each sample were collected in a non-gel lithium-heparin tube (for determination of plasma arsenic level) and 3 ml×2 in EDTA tubes (for determination of whole blood level). The plasma from the lithium-heparin tube was freshly separated and both the plasma and whole blood samples were stored at 4° C. and subsequently analyzed in batches.
Plasma and whole blood arsenic concentration were assayed after the samples were deproteinized with 3% (w/v) trichloroacetic acid and then mixed with matrix modifiers. The matrix modifiers contained magnesium nitrate (10 g/L), palladium chloride (6 g/L), and ammonium sulphite (20 g/L) in 0.5% Triton X 100. All chemicals were of analytical grade and were obtained from Sigma (St Louis, Mo.). The treated samples were assayed for total arsenic concentration in whole blood and plasma (which includes As2O3 per se and its metabolites) by graphite furnace atomic absorption spectrophotometry (Simma 6000, Perkin-Elmer, Norwalk, Conn.). Concentrations are therefore expressed as nmol/L of arsenic above basal values. The between-day coefficient of variation of this method was 7.5-9.6% for arsenic concentrations varying from 559 to 2169 nmol/L. The accuracy of this method was assessed by spiking known amounts of arsenic into patient samples; recovery being 97.3-101.3% for concentrations varying from 301 to 678 nmol/L.
The concentration of arsenic in the cellular fraction of blood (Cc) at 48 hours after the initial intravenous dose was calculated from the corresponding plasma (Cp) and whole blood (Cb) concentrations and the prevailing hematocrit (Hct) value as follows:
Nano mols of arsenic in the plasma from 1 liter of blood=Cp(1-Hct).
Accordingly, the mass of arsenic in the remaining cellular fraction in 1 liter of blood amounts to Cb-[Cp(1-Hct)].
Thus, the concentration (weight/volume) of arsenic per liter of the cellular fraction of the blood Cc={Cb-[Cp(1-Hct)]}/Hct.

arsenic trioxide [As2O3]: the “inter-individual variation in plasma AUCs among the nine patients” value in data set [1] (plasma) was ≤ 5 fold. For the same molecule, in data set [1] (whole blood), the “inter-individual variation in whole blood AUCs among the nine patients” value is reported as ≤ 10 fold. Besides, the “solubility in cold water” value in data set [2] is “sparingly and extremely slowly soluble”. Further, the “remissions induced in APL patients” value in data set [3] (literature (Shen 1997, Soignet 1998, Niu 1999)) was “over 90%”. For the same molecule, the “abnormal QTc prolongation on regularly performed ECGs” value in data set [4] (all nine patients receiving As2O3) was “no instance of abnormal QTc prolongation”. Besides, the unexpected complications entry in data set [4] (nine patients) is listed as “No patient suffered unexpected complications”. Besides, the “cases in which PML/RARA became negative” value in data set [5] (3-6 months post-remission, of 12 patients) turned out to be 11 cases. Further, in data set [5] (all patients), the “PML/RARA after As2O3-induced CR” value was “remained positive in all patients”. In addition, in data set [6] (48 hours, mean of 9 patients), the “Cellular Conc (Cc), Mean” value turned out to be 286 nM/L and the “Plasma Conc (Cp), Mean” value turned out to be 85 nM/L. Further, the “Difference, Mean” value in data set [6] (48 hours, mean of 9 patients, p = 0.013 two tailed paired t-test) is 201* nM/L. The “48-hour concentrations in the cellular fraction of blood higher than corresponding plasma concentrations” value in data set [6] (except in patient no 1) is recorded as 2 to 3 fold. Further, in data set [6] (on average, p=0.013), the “48-hour blood cell arsenic levels greater than in plasma” value is reported as 270%.
Regarding `S1[As]2S[As]3S[As]2S[As]13` [tetra-arsenic tetra-sulphide], the “efficacy in APL” value in data set [3] (oral, Lu et al. Blood 2002) was “highly efficacious in APL”.
